From patent US20210121440A1, “ACNE TREATMENT” (priority 2003, published 2021)

Assays:
surface lipids = assay: Surface lipids using Sebumeter; assay type: in vivo, human; settings: 4×600 mg/d p.o. for three months
Protocol: (§1) For treating the inflammatory acne 10 patients having acne papulopustolosa (m:f 6:4, age 19±5 years) were treated orally with a selective 5-lipoxygenase inhibitor, namely with (±)-1-1.benzo[b]thien—2-ylethyl)-1-hydroxyurea (Zileuton) 4×600 mg/d p.o. for a period of three months. The number of lesions and the general degree of severity index according to Allen and […] (Allen B S, Smith J G: Various parameters for grading acne. Arch Dermatol. 1982; 118: 23-25) were clinically judged. Moreover, the surface lipids using Sebumeter® and the liver enzymes in the serum were determined at the beginning of the study, in the 2nd, 4th, 8th and 12th weeks of treatment and 2 weeks after completion of the therapy. The LTB4 detection in the blood by radio-immuno-assay and the lipid fractions in the serum by chromatography were examined at the beginning and in the 12th week of treatment. The patients were photographed at the beginning and at the end of the treatment. The degree of severity index of acne decreased continuously and dependent on the time (41±28% of the initial value in the 12th week of treatment; p<0.05). […] The degree of clinical improvement strongly correlated with the reduction of the total lipids in the sebum (p=0.0009, r^2=0.81) and the free fatty acid (p=0.0003, r^2=0.82). […] To sum up, thus first indirect proofs could be furnished for a genuine inflammatory etiology of acne.

[1] = test system: patients having acne papulopustolosa; assay: Clinical judgement of number of lesions and degree of severity index (Allen and Smith) in acne patients treated orally; assay type: in vivo, human
Protocol: as §1

LTB4 in the blood = assay: LTB4 detection in the blood by radio-immuno-assay; assay type: in vivo, human; settings: beginning vs 12th week of treatment; 4×600 mg/d p.o.
Protocol: as §1

[2] = test system: total lipids and pro-inflammatory lipid fractions in the sebum; assay: Lipids and lipid fractions in the sebum by chromatography; assay type: in vivo, human; settings: 12th week of treatment, 4×600 mg/d p.o.
Protocol: as §1

[3] = test system: patients having acne papulopustolosa; assay: Side-effects in treated acne patients; assay type: in vivo, human; settings: 4×600 mg/d p.o. for three months; 10 patients
Protocol: as §1, with “of acne. […]” for “of acne.”

patients = settings: oral administration; especially older patients having an impaired renal function; cited from earlier work

| Compound | surface lipids (surface lipids) | response of comedones ([1]; 4×600 mg/d p.o. for three months) | decrease of the number of inflammatory lesions up to ([1]; 4×600 mg/d p.o. for three months, p<0.01) [%] | degree of severity index of acne, % of the initial value ([1]; 12th week of treatment, 4×600 mg/d p.o., 10 patients, p<0.05) [%] | all examined parameters during follow-up ([1]; two-weeks' follow-up phase after completion of the therapy) | LTB4 in the blood (LTB4 in the blood) | decrease of lipoperoxides in the sebum [2] [%] | decrease of pro-inflammatory free fatty acids in the sebum [2] [%] | decrease of total lipids in the sebum ([2]; p<0.05) [%] | subjective and objective side-effects [3] | disadvantageous effects observed in clinical tests (patients) |
| --- | --- | --- | --- | --- | --- | --- | --- | --- | --- | --- | --- |
| CC(c1cc2ccccc2s1)N(O)C(N)=O (racemic) [Zileuton, (±)-1-(1-benzo[b]thien-2-ylethyl)-1-hydroxy-urea] | not influenced | comedones did not respond | 29±24 | 41±28 | remained practically unchanged | not influenced | 26±30 | 22±18 | 35±51 | Neither subjective nor objective side-effects were noticed | – |
| CC(C(=O)O)c1ccc2oc(-c3ccc(Cl)cc3)nc2c1 (centres unmarked) [benoxaprofen] | – | – | – | – | – | – | – | – | – | – | a photosensitivity, exzema, milii, onycholysis and a hepatotoxicity with jaundice |
